“Also recorded” adds a separate entry of the source.
Tests used:
mouse aortic rings = experiment: L-NAME induced contraction of peptide-pretreated mouse aortic rings; conditions: vessels pretreated with 10 μM peptide; L-NAME 100 μM
Description: For isolated mouse aortic rings preparations, male C57 black mice (5-7 weeks of age) were anesthetized with methoxyflurane and sacrificed by exsanguination. The thoracic aorta was dissected and cut into cylindrical segments of three millimeters in length. Using a sterile 48-well tissue culture plate, each ring was incubated in a total volume of one ml with either peptides or vehicle (DMSO) diluted in DMEM supplemented with penicillin (100 units/ml), streptomycin (100 μg/ml) and L-glutamine (1 mM). The plate was incubated with 5% CO2. Following incubation with the peptides (one, six, twelve or twenty hours), rings were washed in oxygenated (95% O2-5% CO2) Krebs-Henseleit bicarbonate buffer solution (KHS) of the following composition (NaCl—118.3 mmol/L, KCl—4.7 mmol/L, CaCl2—2.5 mmol/L, MgSO4—1.2 mmol/L, KH2PO4—1.2 mmol/L, NaHCO3—25 mmol/L, glucose—5.6 mmol/L at 37° C. with ibuprofen (10 μM). The rings were suspended by two tungsten wires ([…] thickness) inserted into the lumen and mounted in a vessel myograph system (five ml chamber, Kent Scientific). The mouse aortas were submitted to a resting tension of 1.5 grams and isometric tension was recorded using a force transducer coupled to a MacLab data acquisition system. […] In some experiments concentration-response curves to the contractile effects of PE were monitored. […]

prostacyclin production = experiment: Prostacyclin release from mouse aortic rings (6-keto-PGF1α by EIA); conditions: peptide twenty hours; Ach 1 μM thirty minutes
Description: To further test the specificity of AP-Cav, Ach-induced prostacyclin production was measured. For measurement of prostacyclin release, after twenty hour incubation period, aortic segments (4-5 mm) were placed in sterile 48-well tissue culture plates with 300 μl of KHS at 37° C. for thirty minutes in an incubator. Then aliquots of […] were taken in order to measure the basal release of prostacyclin. Ach (1 μM) was added and the plate was kept in the incubator for an additional thirty minutes. Aliquots were then taken in order to measure the Ach-stimulated release of prostacyclin. This protocol was performed in absence or in presence of ibuprofen (10 μM). The aliquots were frozen and prostacyclin release was measured as the stable breakdown product, 6-keto-PGF1α, by EIA (Amersham).

isolated mouse aorta [1] = experiment: Ach-induced relaxation of isolated mouse aortic rings (organ bath); conditions: 10 μM peptide, twenty hours incubation, PE precontracted rings
Description: (§1) For isolated mouse aortic rings preparations, male C57 black mice (5-7 weeks of age) were anesthetized with methoxyflurane and sacrificed by exsanguination. The thoracic aorta was dissected and cut into cylindrical segments of three millimeters in length. Using a sterile 48-well tissue culture plate, each ring was incubated in a total volume of one ml with either peptides or vehicle (DMSO) diluted in DMEM supplemented with penicillin (100 units/ml), streptomycin (100 μg/ml) and L-glutamine (1 mM). The plate was incubated with 5% CO2. Following incubation with the peptides (one, six, twelve or twenty hours), rings were washed in oxygenated (95% O2-5% CO2) Krebs-Henseleit bicarbonate buffer solution (KHS) of the following composition (NaCl—118.3 mmol/L, KCl—4.7 mmol/L, CaCl2—2.5 mmol/L, MgSO4—1.2 mmol/L, KH2PO4—1.2 mmol/L, NaHCO3—25 mmol/L, glucose—5.6 mmol/L at 37° C. with ibuprofen (10 μM). The rings were suspended by two tungsten wires ([…] thickness) inserted into the lumen and mounted in a vessel myograph system (five ml chamber, Kent Scientific). The mouse aortas were submitted to a resting tension of 1.5 grams and isometric tension was recorded using a force transducer coupled to a MacLab data acquisition system. […] In some experiments concentration-response curves to the contractile effects of PE were monitored.

[2] = test system: carrageenan induced paw edema; experiment: Murine carrageenan induced paw edema model; format: in vivo, mouse; conditions: 1 mg/kg, paws 48 hours post-injection, H&E
Description: For in vivo inflammation studies the murine carrageenan induced paw edema model was used. Briefly, male, Swiss mice (25-30 grams) were divided in groups (n=6-7) and lightly anaesthetised with methoxyflurane. Each group of animals received a subplantar administration of 50 μl of 1% (w/v) λ carrageenan. Paw volume was measured using a hydroplethismometer modified for measuring small volumes (Ugo Basile) immediately before the carrageenan injection and twenty-four and forty-eight hours thereafter. The increase in paw volume is evaluated as the difference between paw volume at each time point and the basal volume. AP-Cav (0.3, 1 mg/kg i.p.) AP-Cav-X (1 mg/kg i.p.) and dexamethasone (0.1 mg/kg s.c.) were administered at the time of carrageenin administration (time zero) and at twenty-four and forty-eight hours. In a separate series of experiments, forty-eight hours post carrageenan injections, animals were sacrificed by cervical dislocation and both paws were cut. The right paws were embedded in OCT medium and cross sections ([…] of thickness) were obtained for staining with hematoxylin and eosin.

vascular leakage = experiment: Mustard oil induced Evans blue extravasation in the mouse ear (vascular permeability); format: in vivo; conditions: 2 mg/kg i.p., forty-five minute pretreatment; read after thirty minutes
Description: FIG. 10—AP-caveolin peptide reduces vascular leakage. Mice were pretreated with AP-Cav, AP-Cav-X (2 mg/kg of each, i.p.) or L-NAME (30 mg/kg, i.p.) for forty-five minutes followed by Evans blue administration (30 mg/kg, i.v.). Mustard oil was applied to the ventral and dorsal side of the right ear one minute after Evans blue injection. The extent of Evans blue extravasation was assessed after thirty minutes (n=4 mice per group for vehicle and L-NAME treated mice and n=5 for AP-Cav and AP-Cav-X treated mice; *p<0.05). (D) Representative pictures of mice subjected to mustard oil induced inflammation.
To directly assess if the AP-peptide can influence vascular leakage in an additional model, we treated mice with vehicle, AP-Cav, AP-Cav-X (2 mg/kg, i.p. for each; forty-five minute pretreatment) or L-NAME (30 mg/kg, i.p., […] pretreatment) and examined the ability of mustard oil to induce the extravasation of Evans blue, as an index of vascular permeability. […] Thus, in two distinct models, AP-Cav reduces inflammation likely through attenuating eNOS-dependent blood flow and/or permeability changes evoke by inflammatory stimuli.

isolated mouse aorta [3] = experiment: Phenylephrine-induced contraction of isolated mouse aorta; conditions: 10 μM peptide preincubation
Description: as §1

isolated mouse aortas = experiment: Sodium nitroprusside induced (endothelium independent) relaxation of mouse aorta; conditions: 10 μM peptide, twenty hours; SNP 10 μM
HepG-2 tumors = experiment: HepG-2 tumor growth in nude mice; format: in vivo, mouse; conditions: 2.5 mg/kg, day fourteen
Description: The ability of the AP-Cav peptide to influence tumor growth in vivo was also examined. Nude mice were injected with the HepG-2 cells, a human hepatocarcinoma line, and the effects of AP-Cav and AP-Cav-X examined after daily administration of the peptides intraperitoneal. For HepG-2 cells implants in nude mice, the human hepatocarcinoma cell line, HepG-2, was cultured in minimal essential media with 10% fetal bovine serum, 2 mM L-glutamine, penicillin and streptomycin. Cells were grown on 150 mm dishes up to 80% confluence, trypsinized and ressuspended in serum free media. Viable cells were counted using the trypan blue exclusion method. A cell suspension was prepared at a density of 5×10^7 cells/ml. Nude mice were then injected in the flank with 100 μl of the HepG-2 cell suspension.
When the tumors reached a solid palpable mass (7-10 days), treatment with the different drugs began. Peptides were dissolved in 0.01% (v/v) DMSO and administered daily by i.p. injection (100 μl/20 gram mouse) for fourteen days. Tumor volume was determined every day using the formula width^2×length×0.52. For histochemistry tumors were excised from the animal at day fourteen, washed in phosphate buffered saline and fixed in 70% ethanol. […] Images were captured using a Zeiss microscope coupled to a CCD camera and were recorded with the NIH Image program.

[4] = test system: bovine aortic endothelial cells (BAEC); experiment: Ionomycin stimulated NO release from cultured endothelial cells (chemiluminescence); format: cell-based; conditions: 1 μM peptide six hours; ionomycin 1 μM thirty minutes
Description: For measurement of nitric oxide release from cultured endothelial cells, bovine aortic endothelial cells (BAEC) were cultured in high glucose Dulbecco's modified Eagle's medium (DMEM) containing 10% (v/v) fetal bovine serum, penicillin, streptomycin and L-glutamine. For measurement of ionomycin stimulated NO release, confluent BAEC were cultured in […]. Cells were washed and media was changed to serum free DMEM containing peptides or vehicle (0.01% DMSO). Following a six hour incubation, peptides were washed out and cells were stimulated with ionomycin (1 μM) for thirty minutes. Media was collected and processed for the measurement of nitrite (NO2—), the stable breakdown product of NO in aqueous solution, by NO-specific chemiluminescence. Samples containing NO2— were refluxed in glacial acetic acid containing sodium iodide. […] In all experiments, NO2— release was inhibitable by a NOS inhibitor.

Question: Which results are given for “AP-Cav-X: Scrambled control peptide Cav-X (WGIDKAFFTTSTVTYKWFRY, SEQ ID NO: 9) fused to the antennapedia internalization sequence; SEQ ID NO: 12 (RQIKIWFQNRRMKWKKWGIDKAFFTTSTVTYKWFRY)”?
Answer: further increase in isometric tension by L-NAME (mouse aortic rings): further increased isometric tension; basal or Ach stimulated prostacyclin production (6-keto-PGF1α) (prostacyclin production): Neither AP-Cav-X nor AP-Cav influenced; also recorded: do not affect Ach-induced prostacyclin release; effect on Ach-induced relaxation (isolated mouse aorta [1]): did not influence Ach-induced relaxation; cellular infiltration into the sites of inflammation (histology) [2]: did not show marked differences; vascular leak (Evans blue extravasation) (vascular leakage): dilated vessels and diffuse blue dye in the periphery of the right ear; potentiation of the vasoconstrictor actions of phenylephrine (isolated mouse aorta [3]): but not AP-Cav-X resulted in potentiation; effect on vasorelaxant properties of sodium nitroprusside (isolated mouse aortas): had no effect; tumor morphology (hematoxylin and eosin) (HepG-2 tumors): classical epitheliod appearance and were highly vascularized; calcium ionophore stimulated NOx release [4]: but not AP-Cav-X blocked
